From ChEMBL document CHEMBL3611970, “Synthesis and evaluation of isatin-β-thiosemicarbazones as novel agents against antibiotic-resistant Gram-positive bacterial species” (2015)
Converted amounts (≈) assume the structure as drawn.

Key:
Assay type in all cases: functional
Bacillus spizizenii = assay: Antimicrobial activity against Bacillus subtilis ATCC 6633 after 16 hrs by broth microdilution method; settings: ATCC 6633, 16 h
Staphylococcus aureus [1] = assay: Antimicrobial activity against methicillin-resistant Staphylococcus aureus 309-7 clinical isolate after 16 hrs by broth microdilution method; settings: 309-7, 16 h
Staphylococcus aureus [2] = assay: Antimicrobial activity against methicillin-resistant Staphylococcus aureus 8-24 clinical isolate after 16 hrs by broth microdilution method; settings: 8-24, 16 h
Staphylococcus aureus [3] = assay: Antimicrobial activity against methicillin-resistant Staphylococcus aureus 309-4 clinical isolate after 16 hrs by broth microdilution method; settings: 309-4, 16 h
Klebsiella pneumoniae = assay: Antimicrobial activity against Klebsiella pneumoniae KP-249 clinical isolate after 16 hrs by broth microdilution method; settings: KP-249, 16 h
Staphylococcus aureus [4] = assay: Antimicrobial activity against methicillin-resistant Staphylococcus aureus 6281 clinical isolate after 16 hrs by broth microdilution method; settings: Staphylococcus aureus, 6281, 16 h
Staphylococcus aureus [5] = assay: Antimicrobial activity against Staphylococcus aureus ATCC 6538 after 16 hrs by broth microdilution method; settings: ATCC 6538, 16 h
Staphylococcus aureus [6] = assay: Antimicrobial activity against methicillin-resistant Staphylococcus aureus 309-3 clinical isolate after 16 hrs by broth microdilution method; settings: 309-3, 16 h
Staphylococcus aureus [7] = assay: Antimicrobial activity against methicillin-resistant Staphylococcus aureus 309-6 clinical isolate after 16 hrs by broth microdilution method; settings: 309-6, 16 h
Staphylococcus aureus [8] = assay: Antimicrobial activity against methicillin-resistant Staphylococcus aureus 309-1 clinical isolate after 16 hrs by broth microdilution method; settings: 309-1, 16 h
Staphylococcus aureus [9] = assay: Antimicrobial activity against methicillin-resistant Staphylococcus aureus 309-8 clinical isolate after 16 hrs by broth microdilution method; settings: 309-8, 16 h
Staphylococcus aureus [10] = assay: Antimicrobial activity against methicillin-resistant Staphylococcus aureus 8-21 clinical isolate after 16 hrs by broth microdilution method; settings: 8-21, 16 h
Staphylococcus aureus [11] = assay: Antimicrobial activity against methicillin-resistant Staphylococcus aureus Chaoyang clinical isolate after 16 hrs by broth microdilution method
Enterococcus faecalis [12] = assay: Antimicrobial activity against Enterococcus faecalis VRE-309 after 16 hrs by broth microdilution method; settings: VRE-309, 16 h
Pseudomonas aeruginosa = assay: Antimicrobial activity against Pseudomonas aeruginosa PAO1 after 16 hrs by broth microdilution method; settings: PAO1, 16 h
Enterococcus faecalis [13] = assay: Antimicrobial activity against vancomycin-susceptible Enterococcus faecalis after 16 hrs by broth microdilution method
Staphylococcus aureus [14] = assay: Antimicrobial activity against methicillin-resistant Staphylococcus aureus 6-42 clinical isolate after 16 hrs by broth microdilution method; settings: 6-42, 16 h

SMILES | MIC (Bacillus spizizenii) | MIC (Staphylococcus aureus [1]) | MIC (Staphylococcus aureus [2]) | MIC (Staphylococcus aureus [3]) | MIC (Klebsiella pneumoniae) | MIC (Staphylococcus aureus [4]) | MIC (Staphylococcus aureus [5]) | MIC (Staphylococcus aureus [6]) | MIC (Staphylococcus aureus [7]) | MIC (Staphylococcus aureus [8]) | MIC (Staphylococcus aureus [9]) | MIC (Staphylococcus aureus [10]) | MIC (Staphylococcus aureus [11]) | MIC (Enterococcus faecalis [12]) | MIC (Pseudomonas aeruginosa) | MIC (Enterococcus faecalis [13]) | MIC (Staphylococcus aureus [14])
Cc1cccc(NC(=S)N/N=C2\C(=O)Nc3c(F)cccc32)c1 | ≤ 0.78 µg/mL | 0.78 µg/mL (≈ 2.38 µM) | 1.56 µg/mL (≈ 4.75 µM) | 0.78 µg/mL (≈ 2.38 µM) | > 100 µg/mL | 1.56 µg/mL (≈ 4.75 µM) | 1.56 µg/mL (≈ 4.75 µM) | 0.78 µg/mL (≈ 2.38 µM) | 1.56 µg/mL (≈ 4.75 µM) | 0.78 µg/mL (≈ 2.38 µM) | 0.78 µg/mL (≈ 2.38 µM) | 0.78 µg/mL (≈ 2.38 µM) | 0.39 µg/mL (≈ 1.19 µM) | 3.12 µg/mL (≈ 9.5 µM) | > 100 µg/mL | 3.12 µg/mL (≈ 9.5 µM) | 0.78 µg/mL (≈ 2.38 µM)
Cc1ccccc1NC(=S)N/N=C1\C(=O)Nc2c(Cl)cccc21 | ≤ 0.78 µg/mL | 0.78 µg/mL (≈ 2.26 µM) | 1.56 µg/mL (≈ 4.52 µM) | 1.56 µg/mL (≈ 4.52 µM) | > 100 µg/mL | 1.56 µg/mL (≈ 4.52 µM) | 1.56 µg/mL (≈ 4.52 µM) | 1.56 µg/mL (≈ 4.52 µM) | 1.56 µg/mL (≈ 4.52 µM) | 1.56 µg/mL (≈ 4.52 µM) | 1.56 µg/mL (≈ 4.52 µM) | 0.78 µg/mL (≈ 2.26 µM) | 0.78 µg/mL (≈ 2.26 µM) | 3.12 µg/mL (≈ 9.05 µM) | > 100 µg/mL | 6.25 µg/mL (≈ 18.1 µM) | 0.78 µg/mL (≈ 2.26 µM)
COc1ccc(NC(=S)N/N=C2\C(=O)Nc3c(F)cccc32)cc1 | 1.56 µg/mL (≈ 4.53 µM) | 1.56 µg/mL (≈ 4.53 µM) | 3.12 µg/mL (≈ 9.06 µM) | 3.12 µg/mL (≈ 9.06 µM) | > 100 µg/mL | 6.25 µg/mL (≈ 18.1 µM) | 3.12 µg/mL (≈ 9.06 µM) | 3.12 µg/mL (≈ 9.06 µM) | 3.12 µg/mL (≈ 9.06 µM) | 3.12 µg/mL (≈ 9.06 µM) | 3.12 µg/mL (≈ 9.06 µM) | 3.12 µg/mL (≈ 9.06 µM) | 1.56 µg/mL (≈ 4.53 µM) | > 100 µg/mL | > 100 µg/mL | > 100 µg/mL | 3.12 µg/mL (≈ 9.06 µM)
Cc1ccc(NC(=S)N/N=C2\C(=O)Nc3c(I)cccc32)cc1 | 1.56 µg/mL (≈ 3.58 µM) | 0.78 µg/mL (≈ 1.79 µM) | 3.12 µg/mL (≈ 7.15 µM) | 1.56 µg/mL (≈ 3.58 µM) | > 100 µg/mL | 6.25 µg/mL (≈ 14.3 µM) | 6.25 µg/mL (≈ 14.3 µM) | 3.12 µg/mL (≈ 7.15 µM) | 3.12 µg/mL (≈ 7.15 µM) | 3.12 µg/mL (≈ 7.15 µM) | 1.56 µg/mL (≈ 3.58 µM) | 1.56 µg/mL (≈ 3.58 µM) | 0.78 µg/mL (≈ 1.79 µM) | 3.12 µg/mL (≈ 7.15 µM) | > 100 µg/mL | 12.5 µg/mL (≈ 28.7 µM) | 0.78 µg/mL (≈ 1.79 µM)
O=C1Nc2c(I)cccc2/C1=N/NC(=S)Nc1ccccc1F | ≤ 0.78 µg/mL | 0.78 µg/mL (≈ 1.77 µM) | 1.56 µg/mL (≈ 3.54 µM) | 1.56 µg/mL (≈ 3.54 µM) | > 100 µg/mL | 6.25 µg/mL (≈ 14.2 µM) | 3.12 µg/mL (≈ 7.09 µM) | 3.12 µg/mL (≈ 7.09 µM) | 3.12 µg/mL (≈ 7.09 µM) | 1.56 µg/mL (≈ 3.54 µM) | 1.56 µg/mL (≈ 3.54 µM) | 1.56 µg/mL (≈ 3.54 µM) | 0.78 µg/mL (≈ 1.77 µM) | 6.25 µg/mL (≈ 14.2 µM) | > 100 µg/mL | 12.5 µg/mL (≈ 28.4 µM) | 0.78 µg/mL (≈ 1.77 µM)
COc1ccc(NC(=S)N/N=C2\C(=O)Nc3c(Br)cccc32)cc1 | ≤ 0.78 µg/mL | 0.78 µg/mL (≈ 1.92 µM) | 1.56 µg/mL (≈ 3.85 µM) | 1.56 µg/mL (≈ 3.85 µM) | > 100 µg/mL | 6.25 µg/mL (≈ 15.4 µM) | 6.25 µg/mL (≈ 15.4 µM) | 3.12 µg/mL (≈ 7.7 µM) | 6.25 µg/mL (≈ 15.4 µM) | 1.56 µg/mL (≈ 3.85 µM) | 1.56 µg/mL (≈ 3.85 µM) | 1.56 µg/mL (≈ 3.85 µM) | 0.78 µg/mL (≈ 1.92 µM) | > 100 µg/mL | > 100 µg/mL | > 100 µg/mL | 0.78 µg/mL (≈ 1.92 µM)
O=C1Nc2c(Cl)cccc2/C1=N/NC(=S)Nc1ccc(Cl)cc1 | ≤ 0.78 µg/mL | 0.78 µg/mL (≈ 2.14 µM) | 1.56 µg/mL (≈ 4.27 µM) | 0.78 µg/mL (≈ 2.14 µM) | > 100 µg/mL | 1.56 µg/mL (≈ 4.27 µM) | 1.56 µg/mL (≈ 4.27 µM) | 1.56 µg/mL (≈ 4.27 µM) | 1.56 µg/mL (≈ 4.27 µM) | 0.78 µg/mL (≈ 2.14 µM) | 1.56 µg/mL (≈ 4.27 µM) | 0.78 µg/mL (≈ 2.14 µM) | 0.39 µg/mL (≈ 1.07 µM) | 1.56 µg/mL (≈ 4.27 µM) | > 100 µg/mL | 3.12 µg/mL (≈ 8.54 µM) | 0.78 µg/mL (≈ 2.14 µM)
O=C1Nc2c(Cl)cccc2/C1=N/NC(=S)Nc1cccc(Cl)c1 | ≤ 0.78 µg/mL | 0.78 µg/mL (≈ 2.14 µM) | 1.56 µg/mL (≈ 4.27 µM) | 0.78 µg/mL (≈ 2.14 µM) | > 100 µg/mL | 1.56 µg/mL (≈ 4.27 µM) | 1.56 µg/mL (≈ 4.27 µM) | 1.56 µg/mL (≈ 4.27 µM) | 3.12 µg/mL (≈ 8.54 µM) | 1.56 µg/mL (≈ 4.27 µM) | 1.56 µg/mL (≈ 4.27 µM) | 1.56 µg/mL (≈ 4.27 µM) | 0.78 µg/mL (≈ 2.14 µM) | 1.56 µg/mL (≈ 4.27 µM) | > 100 µg/mL | 3.12 µg/mL (≈ 8.54 µM) | 0.78 µg/mL (≈ 2.14 µM)
O=C1Nc2c(Cl)cccc2/C1=N/NC(=S)Nc1cccc(F)c1 | ≤ 0.78 µg/mL | 0.78 µg/mL (≈ 2.24 µM) | 1.56 µg/mL (≈ 4.47 µM) | 0.78 µg/mL (≈ 2.24 µM) | > 100 µg/mL | 3.12 µg/mL (≈ 8.95 µM) | 1.56 µg/mL (≈ 4.47 µM) | 1.56 µg/mL (≈ 4.47 µM) | 1.56 µg/mL (≈ 4.47 µM) | 1.56 µg/mL (≈ 4.47 µM) | 1.56 µg/mL (≈ 4.47 µM) | 1.56 µg/mL (≈ 4.47 µM) | 0.39 µg/mL (≈ 1.12 µM) | 1.56 µg/mL (≈ 4.47 µM) | > 100 µg/mL | 3.12 µg/mL (≈ 8.95 µM) | 0.78 µg/mL (≈ 2.24 µM)
O=C(O)c1cn(C2CC2)c2cc(N3CCNCC3)c(F)cc2c1=O [CIPROFLOXACIN] | – | – | – | – | – | – | – | – | – | – | – | – | – | – | 1 µg/mL (≈ 3.02 µM) | – | –
Cc1cccc2c1NC(=O)/C2=N\NC(=S)Nc1ccc(F)cc1 | ≤ 0.78 µg/mL | 0.78 µg/mL (≈ 2.38 µM) | 1.56 µg/mL (≈ 4.75 µM) | 1.56 µg/mL (≈ 4.75 µM) | > 100 µg/mL | 3.12 µg/mL (≈ 9.5 µM) | 1.56 µg/mL (≈ 4.75 µM) | 1.56 µg/mL (≈ 4.75 µM) | 1.56 µg/mL (≈ 4.75 µM) | 1.56 µg/mL (≈ 4.75 µM) | 1.56 µg/mL (≈ 4.75 µM) | 1.56 µg/mL (≈ 4.75 µM) | 0.78 µg/mL (≈ 2.38 µM) | 1.56 µg/mL (≈ 4.75 µM) | > 100 µg/mL | 3.12 µg/mL (≈ 9.5 µM) | 1.56 µg/mL (≈ 4.75 µM)
O=C1Nc2c(F)cccc2/C1=N/NC(=S)Nc1ccccc1 | ≤ 0.78 µg/mL | – | – | – | – | – | 3.12 µg/mL (≈ 9.93 µM) | – | – | – | – | – | 1.56 µg/mL (≈ 4.96 µM) | – | – | – | –
O=C1Nc2c(Br)cc(Br)cc2/C1=N/NC(=S)Nc1ccc(F)cc1 | 1.56 µg/mL (≈ 3.3 µM) | – | – | – | – | – | 12.5 µg/mL (≈ 26.5 µM) | – | – | – | – | – | 6.25 µg/mL (≈ 13.2 µM) | – | – | – | –
